Source: the NIST ThermoML archive (doi:10.1021/je800828y)
± gives the expanded uncertainty stated by the source.

Conditions: 351.44 K; Liquid; Ebulliometric method (Recirculating still)

## CCO [ethanol]
  vapor or sublimation pressure: 101.3 ± 0.1 kPa
